Where two headings read alike, the source gives them in different places.

Assay [1] concerns PRMT5-dependent Symmetric Di-methyl Arginine signal in HCT116 homozygous MTAP Knockout cells. The assay is described as follows: SYM11 In-Cell Western in HCT116 homozygous MTAP knockout cells. In kind it is cell-based. The following applies: 4 days of treatment, SYM11/DRAQ5 ratio as percent of DMSO control, read-out: In-cell-Western (SYM11) IC50 (nM) HCT116 MTAP_KO. Put shortly: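 HCT116 cells with CRISPR homozygous MTAP knockout, alongside parental cells, treated four days with PRMT5 inhibitor dose response at 37° C., 5% CO2 in McCoy's 5A with 10% FBS.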

Assay [2] concerns the target T1, PRMT5/MEP50 complex (Homo sapiens, UniProt O14744).
T1 construct: purchased Reaction Biology Corporation
Put plainly: PRMT5:MEP50 HotSpot Assay (full-length histone H2A substrate, plus and minus MTA). In kind it is biochemical. An outline of the steps: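 Radiometric HotSpot format using recombinant full-length histone H2A as substrate, run with and without MTA. Reactions were stopped and spotted onto filter paper. Tritiated H2A was quantified by scintillation counting.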

Assay [3] addresses T1, PRMT5/MEP50 complex. Put plainly: PRMT5:MEP50 FlashPlate Assay (histone H4 peptide substrate, plus and minus MTA). In kind it is biochemical. The method, then:
The PRMT5 inhibitory activity of compounds of the present invention was determined using either a PRMT5:MEP50 FlashPlate Assay (Reaction Biology Corporation) or a PRMT5:MEP50 HotSpot Assay (Reaction Biology Corporation).

Assay [4] has as its system PRMT5-dependent Symmetric Di-methyl Arginine signal in HCT116 parental cells. Put plainly: SYM11 In-Cell Western in HCT116 parental cells. Particulars: HCT116 parental cells, 4 days of treatment, SYM11/DRAQ5 ratio as percent of DMSO control, read-out: In-cell-Western (SYM11) IC50 (nM) HCT216 parental. In kind it is cell-based. The method, then:
(§1) Control samples were analyzed in parallel.
Briefly, on Day 0, 2,000 HCT116 parental or HCT116 homozygous MTAP knockout cells were seeded in 96 well plates in McCoy's 5A supplemented with 10% fetal bovine serum and pen/strep and the cells were incubated overnight at 37° C. plus 5% CO2. The following day, cells were treated with DMSO vehicle control or a dose response of PRMT5 inhibitors, and incubated at 37° C. plus 5% CO^2 for four days.
After 4 days of treatment, the cells were fixed by adding 50 μl of 4% paraformaldehyde solution to each well and the cells were incubated for 20 min at room temperature. The paraformaldehyde solution was removed, 150 μl of ice-cold methanol was added and the plate was placed −20° C. for 10 minutes. The methanol was removed, 150 μl of Odyssey Blocking buffer+0.05% Tween20 was added and the plate was incubated at room temperature with shaking for one hour.
The primary SYM11 antibody solution was removed by aspiration and the wells were washed three consecutive times with phosphate buffered saline containing 0.1% Tween-20 (PBST).
The secondary antibody solution was removed by aspiration and the wells were washed three consecutive times with PBST.
The SYM11 signal and the DRAQ5 signal were quantified using a Li-Cor Odyssey machine reading at […], respectively. The SYM11/DRAQ5 ratio was used to calculate the inhibition of Symmetric Dimethyl Arginine as percent of DMSO control.

The subject of assay [5] is HCT116 homozygous MTAP knockout cells. The assay is described as follows: Proliferation assay (CellTiter-Glo, 10 days) in HCT116 homozygous MTAP knockout cells. In kind it is cell-based. Particulars: CellTiter-Glo after 10 days of treatment, read-out: Proliferation IC50 (nM) HCT116 MTAP_KO. Put shortly: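 MTAP-null HCT116 clone made by CRISPR/Cas9 knockout of both alleles, tested beside parental cells. Cells dosed the day after seeding, split 1:10 on day 6 into fresh medium with the same compound level, and read on day 11 by CellTiter-Glo. IC50 taken after 10 days of exposure.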
For orientation: Cellular ATP, detected with luciferase, serves as a proxy for viable cell number.

For a further assay, the system named is HCT116 parental cells. The assay is described as follows: Proliferation assay (CellTiter-Glo, 10 days) in HCT116 parental cells. In kind it is cell-based. The following applies: CellTiter-Glo after 10 days of treatment. The method, then:
as §1
Briefly, on Day 0, 250 HCT116 parental or HCT116 homozygous MTAP knockout cell were seeded in 96 well plates in McCoy's 5A supplemented with […] fetal bovine serum and pen/strep and the cells were incubated overnight at 37° C. plus 5% CO2.
The following day, cells were treated with DMSO vehicle control or a dose response of PRMT5 inhibitors and incubated at 37 C plus 5% CO2 for five days. On Day 6, the cells were trypsinized and split 1:10 into new 96-well plates with fresh medium containing the same concentration of PRMT5 inhibitor and incubated for an additional 5 days at 37° C. plus 5% CO^2.
On Day 11, the viability of the cells was measured using a CTG assay kit (CellTiter-Glo; Promega cat.no G7573) in accordance with the manufacturer's instructions. The IC50 values for each compound after 10 days of treatment were calculated using GraphPad PRISM software.

The mark [6] stands for this setting: read-out: IC50 + 2 μM MTA, in the presence of 2 μM MTA.
Setting [7] is: in the absence of MTA, read-out: IC50.
The mark [8] stands for this setting: IC50 + 2 μM MTA, in the presence of 2 μM MTA.

T1 sequence (O14744 2-637 limits assumed): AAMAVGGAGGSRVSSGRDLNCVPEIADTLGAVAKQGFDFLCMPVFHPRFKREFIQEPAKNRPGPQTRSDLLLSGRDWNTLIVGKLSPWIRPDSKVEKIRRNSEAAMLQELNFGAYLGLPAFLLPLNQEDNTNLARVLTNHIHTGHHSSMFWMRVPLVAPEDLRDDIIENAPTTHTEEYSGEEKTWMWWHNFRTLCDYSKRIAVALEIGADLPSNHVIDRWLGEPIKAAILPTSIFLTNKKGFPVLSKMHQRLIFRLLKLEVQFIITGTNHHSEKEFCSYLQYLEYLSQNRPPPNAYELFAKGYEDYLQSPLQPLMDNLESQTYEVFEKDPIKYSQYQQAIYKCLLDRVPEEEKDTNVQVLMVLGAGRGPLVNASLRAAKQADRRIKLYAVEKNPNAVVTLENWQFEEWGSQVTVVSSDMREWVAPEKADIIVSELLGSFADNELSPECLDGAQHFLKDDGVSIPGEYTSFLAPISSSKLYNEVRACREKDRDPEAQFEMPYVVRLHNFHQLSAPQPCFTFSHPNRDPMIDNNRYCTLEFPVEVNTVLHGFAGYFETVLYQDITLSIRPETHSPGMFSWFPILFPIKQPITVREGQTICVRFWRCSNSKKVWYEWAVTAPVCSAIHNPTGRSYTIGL
T1 sequence (Q9BQA1 2-342 partner limits assumed): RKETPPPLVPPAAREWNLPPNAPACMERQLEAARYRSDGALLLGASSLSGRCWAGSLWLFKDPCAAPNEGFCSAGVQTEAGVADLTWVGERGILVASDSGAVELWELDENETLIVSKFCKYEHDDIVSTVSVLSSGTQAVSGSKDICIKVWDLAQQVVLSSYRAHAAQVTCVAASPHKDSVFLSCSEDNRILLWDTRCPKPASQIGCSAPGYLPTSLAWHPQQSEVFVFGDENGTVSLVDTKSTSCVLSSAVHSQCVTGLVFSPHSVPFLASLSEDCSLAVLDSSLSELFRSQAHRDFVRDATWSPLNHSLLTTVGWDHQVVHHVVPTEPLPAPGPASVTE

With “4-(aminomethyl)-6-(5-ethoxypyrazolo[1,5-a]pyridin-3-yl)phthalazin-1(2H)-one [Example 4-158]”, the IC50 in assay [1] is more than 10000 nM; on PRMT5/MEP50 complex [2] (setting [6]), 1.46 µM; at PRMT5/MEP50 complex [3] (setting [7]), 0.113 µM; at PRMT5/MEP50 complex [3] (setting [6]), 0.0028 µM; in assay [4] it was more than 10000 nM; in assay [5], 2200 nM. Further, the IC50 in the assay on HCT116 parental cells worked out at 1740 nM.
On to `CCc1cncc(-c2ccc3c(=O)[nH]nc(CN)c3c2)c1` [Example 3-13, 4-(aminomethyl)-6-(5-ethylpyridin-3-yl)-phthalazin-1(2H)-one], for which the IC50 on PRMT5/MEP50 complex [3] (setting [7]) amounted to 0.42 µM.
With `Cc1c(F)c(-c2c(-c3cc(Cl)c4c(=O)[nH]nc(CN)c4c3)cnn2C)c(C#N)c2cc(Cl)cnc12` (single isomer, unassigned) [Example 16-110, (M)-6-(4-(4-(aminomethyl)-8-chloro-1-oxo-1,2-dihydrophthalazin-6-yl)-1-methyl-1H-pyrazol-5-yl)-3-chloro-7-fluoro-8-methylquinoline-5-carbonitrile], the IC50 in assay [1] (Homo sapiens, HCT-116, 96 h) turned out to be 6 nM; at PRMT5/MEP50 complex [2] (setting [8]), 0.019 µM; in assay [4] (Homo sapiens, HCT-116, 96 h) it was 176 nM; in assay [5] (Homo sapiens, HCT-116, 240 h), 16 nM; in the assay on HCT116 parental cells (Homo sapiens, HCT-116, 240 h) it was 423 nM.
For the compound `Cc1nc2cncc(-c3ccc4c(=O)[nH]nc(CN)c4c3)c2o1` [Example 4-110, 4-(aminomethyl)-6-(2-methyloxazolo[4,5-c]pyridin-7-yl)phthalazin-1(2H)-one], the IC50 on PRMT5/MEP50 complex [3] (setting [7]) was more than 100 µM.
Take `Cc1c(F)c(-c2c(-c3ccc4c(=O)[nH]nc(CN)c4c3)cnn2C)c(C#N)c2ccccc12` (single isomer, unassigned) [Example 16-13, (P)-2-[4-[4-(aminomethyl)-1-oxo-2H-phthalazin-6-yl]-2-methyl-pyrazol-3-yl]-3-fluoro-4-methyl-naphthalene-1-carbonitrile]: the IC50 in assay [1] is 232 nM; on PRMT5/MEP50 complex [2] (setting [8]) it was 0.237 µM; in assay [4], more than 1000 nM; in assay [5] it was 211 nM; in the assay with HCT116 parental cells, 770 nM.
In the case of `Cc1cccc(-c2c(-c3ccc4c(=O)[nH]nc(CN)c4c3)cnn2C)c1` [Example 4-94, 4-(aminomethyl)-6-(1-methyl-5-(m-tolyl)-1H-pyrazol-4-yl)phthalazin-1(2H)-one], at PRMT5/MEP50 complex [3] (setting [7]), the IC50 was found to be 0.033 µM.
With `Cn1ncc(-c2ccc3c(=O)[nH]nc(CN)c3c2)c1-c1c(F)ccc(OC2CC2)c1C#N` (single isomer, unassigned) [Example 16-21, (P)-2-[4-[4-(aminomethyl)-1-oxo-2H-phthalazin-6-yl]-2-methyl-pyrazol-3-yl]-6-(cyclopropoxy)-3-fluoro-benzonitrile], the IC50 is 65 nM in assay [1]; 0.462 µM on PRMT5/MEP50 complex [2] (setting [8]); 4480 nM in assay [4]; 112 nM in assay [5]; 4210 nM in the assay with HCT116 parental cells (Homo sapiens, HCT-116, 240 h).
As for `COc1cccc(-c2c(-c3ccc4c(=O)[nH]nc(CN)c4c3)cnn2C)c1` [Example 4-93, 4-(aminomethyl)-6-(5-(3-methoxyphenyl)-1-methyl-1H-pyrazol-4-yl)phthalazin-1(2H)-one], the IC50 on PRMT5/MEP50 complex [3] (setting [7]) was determined as 0.035 µM.

Values taken from patent US20240208912A1 (Mirati Therapeutics, Inc., priority 2021, published 2024).
